Results: patent US20250326785A1, “SODIUM SALT AND ETHANOLAMINE SALT OF 23-HYDROXYTORMENTIC ACID” (HUYABIO International, LLC, priority 2024, published 2025)
Read-outs that look alike come from different tables or passages of the source.

Experiments:
[1] = Stability study at 25° C./60% RH, 40° C./75% RH and 60° C. (XRPD, HPLC purity, impurity tracking); conditions: for XRPD: number = sodium salt XRPD Pattern; for RRT 0.801 / RRT 0.959 / RRT 1.000 (HBI-3808) / RRT 1.025 (Isomer of HBI-3808) / RRT 1.767 / Total Impurities / RRT 1.932: impurity tracking
Text: Stability of HBI-3808 Sodium Salt Pattern 2 was studied over 13 weeks.
Table 2F presents impurity tracking results from a 13-week stability study of HBI-3808 sodium salt of Pattern 2. […]

[2] = Varying humidity (VH)-XRPD; type: physicochemical
Experimental: During the sorption phase, sodium salt Pattern 2 was observed between 40-60% RH. […] A mixture of sodium salt Pattern 2 and 5 was also observed at 80% RH. […] During the second desorption, from 90% RH to 40% RH, sodium salt Pattern 5 was maintained.
VH-XRPD analysis was carried out between 40-0% RH (FIG. 5L).

[3] = for HPLC Conc./: based on free acid
Text: pH-dependent solubility of the HBI- 3808 sodium salt of Pattern 2 was studied.
pH dependent solubility of the HBI- 3808 sodium salt of Pattern 5 was studied.

[4] = Hydration study in methanol/water aw 0.1, 0.5 and 0.9; type: physicochemical
Text: Hydration studies of ethanolamine salt.

[5] = Dynamic vapor sorption (DVS) analysis; type: physicochemical
Experimental: GC analysis indicated residual solvent contents of 2847 ppm methanol; and 27 ppm TBME. […] No residual methanol or TBME was detected due to signal over-lap. […] TG-DSC analysis indicated two weight losses. The first weight loss of 2.3 wt. % was observed between 20-170° C. […] In the DSC thermogram, three endothermic events were observed (FIG. 17I). […] FT-IR (FIG. 17J) and Raman spectra (FIG. 17K) were recorded for reference. […] XRPD pattern of the ethanolamine salt was retained post-DVS (FIG. 17N). […] However, at the end of the experiment the solids on the microscope slide had discolored (FIG. 17O).

[6] = 40° C./75% RH (open vial), 1 Week
[7] = 40° C./75% RH (open vial), 2 Weeks
[8] = 40° C./75% RH (open vial), 4 Weeks

HPLC/ % area ([1]; 25° C./60% RH (open vial), 1 Week): 96.4 % area
XRPD ([1]; 25° C./60% RH (open vial), 1 Week, * Traces of sodium salt Pattern 2): 5
HPLC/ % area ([1]; 25° C./60% RH (open vial), 2 Weeks): 96.7 % area
XRPD ([1]; 25° C./60% RH (open vial), 2 Weeks, * Traces of Pattern 2): 5
HPLC/ % area ([1]; 25° C./60% RH (open vial), 4 Weeks): 96.3 % area
XRPD ([1]; 25° C./60% RH (open vial), 4 Weeks, * Traces of Pattern 2): 5
HPLC/ % area [1, 6]: 96.7 % area
XRPD [1, 6]: 5
HPLC/ % area [1, 7]: 97.5 % area
XRPD [1, 7]: 5
HPLC/ % area [1, 8]: 96.6 % area
XRPD [1, 8]: 5
HPLC/ % area ([1]; 60° C. (closed vial), 1 Week): 96.1 % area
XRPD ([1]; 60° C. (closed vial), 1 Week): 5
HPLC/ % area ([1]; 60° C. (closed vial), 2 Weeks): 97.3 % area
XRPD ([1]; 60° C. (closed vial), 2 Weeks): 5
HPLC/ % area ([1]; 60° C. (closed vial), 4 Weeks): 96.1 % area
XRPD ([1]; 60° C. (closed vial), 4 Weeks): 5
XRPD pattern over the stability study ([1]; all conditions, 4 weeks (Pattern 5), 13 weeks (ethanolamine salt)): Sodium salt Pattern 5 was retained
RRT 0.801 ([1]; 25° C./60% RH, 1 week): 0.37 % area
RRT 0.959 ([1]; 25° C./60% RH, 1 week): 0.14 % area
RRT 1.000 (HBI-3808) ([1]; 25° C./60% RH, 1 week): 96.39 % area
RRT 1.025 (Isomer of HBI-3808) ([1]; 25° C./60% RH, 1 week): 2.67 % area
RRT 1.767 ([1]; 25° C./60% RH, 1 week): 0.43 % area
Total Impurities ([1]; 25° C./60% RH, 1 week): 3.61 % area
RRT 0.801 ([1]; 25° C./60% RH, 2 weeks): 0.30 % area
RRT 1.000 (HBI-3808) ([1]; 25° C./60% RH, 2 weeks): 96.96 % area
RRT 1.025 (Isomer of HBI-3808) ([1]; 25° C./60% RH, 2 weeks): 2.74 % area
Total Impurities ([1]; 25° C./60% RH, 2 weeks): 3.04 % area
RRT 0.801 ([1]; 25° C./60% RH, 4 weeks): 0.26 % area
RRT 0.959 ([1]; 25° C./60% RH, 4 weeks): 0.13 % area
RRT 1.000 (HBI-3808) ([1]; 25° C./60% RH, 4 weeks): 96.33 % area
RRT 1.025 (Isomer of HBI-3808) ([1]; 25° C./60% RH, 4 weeks): 2.76 % area
RRT 1.767 ([1]; 25° C./60% RH, 4 weeks): 0.30 % area
RRT 1.932 ([1]; 25° C./60% RH, 4 weeks): 0.21 % area
Total Impurities ([1]; 25° C./60% RH, 4 weeks): 3.67 % area
RRT 0.801 ([1]; 40° C./75% RH, 1 week): 0.34 % area
RRT 0.959 ([1]; 40° C./75% RH, 1 week): 0.13 % area
RRT 1.000 (HBI-3808) ([1]; 40° C./75% RH, 1 week): 96.67 % area
RRT 1.025 (Isomer of HBI-3808) ([1]; 40° C./75% RH, 1 week): 2.52 % area
RRT 1.767 ([1]; 40° C./75% RH, 1 week): 0.34 % area
Total Impurities ([1]; 40° C./75% RH, 1 week): 3.33 % area
RRT 0.801 ([1]; 40° C./75% RH, 2 weeks): 0.37 % area
RRT 1.000 (HBI-3808) ([1]; 40° C./75% RH, 2 weeks): 97.47 % area
RRT 1.025 (Isomer of HBI-3808) ([1]; 40° C./75% RH, 2 weeks): 2.16 % area
Total Impurities ([1]; 40° C./75% RH, 2 weeks): 2.53 % area
RRT 0.801 ([1]; 40° C./75% RH, 4 weeks): 0.42 % area
RRT 0.959 ([1]; 40° C./75% RH, 4 weeks): 0.16 % area
RRT 1.000 (HBI-3808) ([1]; 40° C./75% RH, 4 weeks): 96.60 % area
RRT 1.025 (Isomer of HBI-3808) ([1]; 40° C./75% RH, 4 weeks): 2.34 % area
RRT 1.767 ([1]; 40° C./75% RH, 4 weeks): 0.25 % area
RRT 1.932 ([1]; 40° C./75% RH, 4 weeks): 0.22 % area
Total Impurities ([1]; 40° C./75% RH, 4 weeks): 3.40 % area
RRT 0.801 ([1]; 60° C., 1 week): 0.28 % area
RRT 0.959 ([1]; 60° C., 1 week): 0.15 % area
RRT 1.000 (HBI-3808) ([1]; 60° C., 1 week): 96.23 % area
RRT 1.025 (Isomer of HBI-3808) ([1]; 60° C., 1 week): 2.94 % area
RRT 1.767 ([1]; 60° C., 1 week): 0.40 % area
Total Impurities ([1]; 60° C., 1 week): 3.77 % area
RRT 0.801 ([1]; 60° C., 2 weeks): 0.38 % area
RRT 1.000 (HBI-3808) ([1]; 60° C., 2 weeks): 97.33 % area
RRT 1.025 (Isomer of HBI-3808) ([1]; 60° C., 2 weeks): 2.29 % area
Total Impurities ([1]; 60° C., 2 weeks): 2.67 % area
RRT 0.801 ([1]; 60° C., 4 weeks): 0.37 % area
RRT 0.959 ([1]; 60° C., 4 weeks): 0.19 % area
RRT 1.000 (HBI-3808) ([1]; 60° C., 4 weeks): 96.13 % area
RRT 1.025 (Isomer of HBI-3808) ([1]; 60° C., 4 weeks): 2.71 % area
RRT 1.767 ([1]; 60° C., 4 weeks): 0.36 % area
RRT 1.932 ([1]; 60° C., 4 weeks): 0.23 % area
Total Impurities ([1]; 60° C., 4 weeks): 3.87 % area
RRT 0.801 ([1]; T = 0): 0.35 % area
RRT 1.000 (HBI-3808) ([1]; T = 0): 96.83 % area
RRT 1.025 (Isomer of HBI-3808) ([1]; T = 0): 2.66 % area
RRT 1.767 ([1]; T = 0): 0.17 % area
Total Impurities ([1]; T = 0): 3.17 % area
input purity by HPLC ([1]; input material of the stability study (baseline)): 96.8 % area
XRPD pattern during desorption ([2]; 40-0% RH, 30° C.): no change in diffractogram
final Measured pH ([3]; FaSSGF): 9.34
HPLC Conc./ ([3]; FaSSGF): >150.33 mg/mL
concentration ([3]; pH 1.2): < 1000 ng/mL
HPLC Conc./ ([3]; target pH 1.2 chloride buffer, start 200 mg/mL (ethanolamine salt 100 mg/mL)): <0.001 mg/mL
HPLC Conc./ ([3]; target pH 3.0 acetate buffer): <0.001 mg/mL
HPLC Conc./ ([3]; target pH 4.0 acetate buffer): <0.001 mg/mL
HPLC Conc./ ([3]; target pH 6.8 phosphate buffer): 0.25 mg/mL
HPLC Conc./ ([3]; target pH 8.0 phosphate buffer): 12.84 mg/mL
XRPD of solids recovered at the end of the experiment [4]: consistent with sodium salt Pattern 2
reversibility of mass uptake/loss ([5]; Pattern 2: second DVS cycle): reversible
water (mass) uptake ([5]; at 80% RH/25° C. (Pattern 2: second DVS cycle)): 0.8 wt. %
Structure (SMILES): CC1CCC2(C(=O)[O-])CCC3(C)C(=CCC4C5(C)CC(O)C(O)C(C)(CO)C5CCC43C)C2C1(C)O.[Na+] (stereo not shown) [HBI-3808 sodium salt of Pattern 5, sodium salt of 23-hydroxytormentic acid]
change in chemical purity by HPLC over the stability study ([1]; all conditions (25° C./60% RH; 40° C./75% RH; 60° C.), 13 weeks (Pattern 5: 4 weeks)): no significant decrease in chemical purity
XRPD pattern / form stability over relative humidity ([2]; 0-90% RH): stable to relative humidity between 90-0% RH
XRPD of recovered material post-DVS [5]: consistent with HBI-3808 sodium salt of Pattern 5
